# According to patent US9359297B2, “Spirolactam derivatives and uses of same” (H. Lundbeck A/S, priority 2009, dated 2016):
# Read-outs that look alike come from different tables or passages of the source.
# Key:
# [1] = target: mGluR5 (allosteric site, [3H]MPEP) (Homo sapiens, UniProt P41594); assay: [3H]MPEP radioligand filtration binding assay on membrane homogenates; details: 5 nM [3H]MPEP; Ki from IC50 by Cheng and Prusoff equation
# Procedure: Binding assays were performed as described in [J. A. O'Brien et al. Mol. Pharmacol., 2003, 64, 731-740] with slight modifications. Briefly, after thawing, the membrane homogenates were resuspended in 50 mM Tris-HCl, 0.9% NaCl binding buffer at pH 7.4 to a final assay concentration of 40 μg protein/well for [^3H]2-methyl-6-phenylethynyl-pyridine ([^3H] MPEP) (American Radiolabeled Chemicals, Inc., St. Louis, Mo.) filtration binding. Incubations included 5 nM [^3H] MPEP, membranes and either buffer or varying concentrations of compound. Samples were incubated for 60 min at room temperature with shaking. Non-specific binding was defined with 10 μM MPEP. After incubation, samples were filtered over a GF/C filter (presoaked in 0.25% polyethyleneimine (PEI)) and then washed 4 times using a Tomtec® Harvester 96® Mach III cell harvester (Tomtec, Hamden, Conn.) with 0.5 mL ice-cold 50 mM Tris-HCl (pH 7.4).
# IC50 values were derived from the inhibition curve and Ki values were calculated according to the Cheng and Prusoff equation of Ki=IC50/(1+[L]/Kd) described in [Y. Cheng and W. H. Prusoff Biochem. Pharmacol. 1973, 22, 3099-3108] where [L] is the concentration of radioligand and Kd is its dissociation constant at the receptor, derived from the saturation isotherm.
# [2] = test system: male CD1 mice; assay: Mouse marble burying (mMB) assay; type: in vivo; details: 30 mpk (sc), FIG. 1
# Description: More specifically for the mMB testing, adult, male CD1 mice (Charles River Laboratories (Kingston, N.Y.)), weighing 25 to 30 g, were used. All animals were group-housed in a standard colony room with a 12:12 light/dark cycle (lights on at 6:00 am) for at least one week prior to testing. Food and water were provided ad libitum. Animals were weighed, tail marked, and randomly assigned to treatment groups before testing.
# For each test, sixty minutes after the injection of vehicle or test compound, or 30 min after injection of the positive control, buspirone, mice were individually placed into test cages containing 1.5 in of Aspen bedding (PWI brand) and two rows of 10 marbles (20 marbles per test cage total). Filter tops were used to cover each test cage. Thirty minutes later, mice were removed from test cages and returned to their home cages. The number of fully visible marbles (less than ⅔ covered with bedding) were counted and subtracted from 20 to arrive at the number of marbles buried. Twelve mice were tested per group.
# Testing included multiple tests with each test performed to evaluate buspirone hydrochloride (BUS; Sigma Aldrich) (positive control) and/or a compound of formula (I). […] Doses were measured in mg drug (salt form) per kg body weight. Data was analyzed using one-way ANOVA with post-hoc Dunnett's test.
# [3] = target: T1, rat metabotropic glutamate receptor 5 (rmGluR5) (Rattus norvegicus, UniProt P31424); assay: Calcium mobilization (FLIPR) assay for negative allosteric modulation, EC80 glutamate, rmGluR5 in HEK 293; type: cell-based; details: HEK293; rmGluR5, inhibition of EC80 glutamate response; read-out: FLIPR maximum inhibition
# T1 construct: expressed in transfected cells
# T1 sequence (P31424 21-1203): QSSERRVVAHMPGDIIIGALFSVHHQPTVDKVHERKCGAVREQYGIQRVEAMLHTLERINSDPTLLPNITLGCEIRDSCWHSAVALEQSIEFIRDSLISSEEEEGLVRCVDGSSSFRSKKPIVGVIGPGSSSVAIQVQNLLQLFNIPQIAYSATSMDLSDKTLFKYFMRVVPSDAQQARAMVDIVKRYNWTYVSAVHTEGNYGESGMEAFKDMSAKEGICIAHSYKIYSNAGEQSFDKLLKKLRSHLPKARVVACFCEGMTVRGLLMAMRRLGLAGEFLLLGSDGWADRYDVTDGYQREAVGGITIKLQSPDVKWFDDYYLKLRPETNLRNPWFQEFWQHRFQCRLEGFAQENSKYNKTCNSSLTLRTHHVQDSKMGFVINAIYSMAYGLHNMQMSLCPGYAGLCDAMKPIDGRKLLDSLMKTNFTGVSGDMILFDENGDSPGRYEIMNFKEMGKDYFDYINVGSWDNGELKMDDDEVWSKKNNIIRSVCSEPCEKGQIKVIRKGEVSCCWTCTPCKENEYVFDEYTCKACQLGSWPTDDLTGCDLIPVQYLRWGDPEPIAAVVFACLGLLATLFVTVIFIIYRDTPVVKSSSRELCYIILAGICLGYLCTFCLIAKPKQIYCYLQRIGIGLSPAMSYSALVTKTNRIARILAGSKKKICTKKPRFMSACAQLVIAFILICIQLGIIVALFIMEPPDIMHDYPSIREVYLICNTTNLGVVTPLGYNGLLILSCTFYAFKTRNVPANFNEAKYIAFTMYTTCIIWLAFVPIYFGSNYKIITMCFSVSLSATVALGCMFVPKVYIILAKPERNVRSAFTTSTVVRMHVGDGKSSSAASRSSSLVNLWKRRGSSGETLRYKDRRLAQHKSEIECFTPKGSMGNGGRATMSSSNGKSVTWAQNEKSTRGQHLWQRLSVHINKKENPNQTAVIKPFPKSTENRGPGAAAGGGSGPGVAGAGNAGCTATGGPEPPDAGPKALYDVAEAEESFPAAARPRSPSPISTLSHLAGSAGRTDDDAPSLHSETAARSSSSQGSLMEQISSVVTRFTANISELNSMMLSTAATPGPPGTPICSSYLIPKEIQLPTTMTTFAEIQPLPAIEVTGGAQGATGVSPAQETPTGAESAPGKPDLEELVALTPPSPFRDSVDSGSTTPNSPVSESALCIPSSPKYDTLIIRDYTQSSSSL
# Outline: (§1)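 Stably transfected HEK 293 cells, Fluo-4-loaded, stimulated with EC80 glutamate plus test compound in HBSS/20 mM HEPES pH 7.4 with probenecid; FLIPR fluorescence read over 3 min at room temperature. Basal-subtracted maximum fluorescence change fitted by Hill equation; negative modulation seen as concentration-dependent inhibition of the EC80 response.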
# [4] = test system: Male Rj: Wistar (Hans) rats; assay: Vogel Conflict Test (punished drinking); type: in vivo; details: rat
# Procedure: The “Vogel Conflict Test” as described by Vogel et al. [Psychopharmacologia, 1971, 21, 1-7] was used to detect anxiolytic activity of a compound of formula (I) because anxiolytics increase punished drinking. In the test, rats were deprived of water for approximately 48 hours and were then placed individually into a transparent Plexiglas® enclosure (15×32×34 cm) with a floor consisting of stainless steel bars (0.4 cm) spaced 1 cm apart. The back wall of the enclosure was made of opaque Plexiglas® thereby concealing the observer from the experimental animal. In the center of the opposite wall, 5 cm above the floor, a metal water spout protruded into the cage and was connected to one pole of a shock generator (Apelex: Type 011346). The other pole of the shock generator was connected to the metal grid floor.
# The rat was left to explore until it found the water spout. Then, every time it drank, it received a slight electric shock (1.7 mA, 1 s) 2 seconds after it started lapping. The number of punished drinks was counted during a 3 minute test. The test was performed blind with 10 rats per group. Testing included multiple tests using reference compounds and a compound of formula (I) that were prepared and administered as described below in the LES test. Male Rj: Wistar (Hans) rats as described therein were used after acclimatization conditions were achieved. Data was analyzed by comparing treated groups with appropriate controls using unpaired Student's t tests.
# [5] = target: T2, human metabotropic glutamate receptor 5 (hmGluR5) (Homo sapiens, UniProt P41594); assay: Calcium mobilization (FLIPR) assay for negative allosteric modulation, EC80 glutamate, hmGluR5 in HEK 293; type: cell-based; details: HEK293; hmGluR5, inhibition of EC80 glutamate response; read-out: FLIPR maximum inhibition
# T2 construct: expressed in transfected cells
# T2 sequence (P41594 21-1212): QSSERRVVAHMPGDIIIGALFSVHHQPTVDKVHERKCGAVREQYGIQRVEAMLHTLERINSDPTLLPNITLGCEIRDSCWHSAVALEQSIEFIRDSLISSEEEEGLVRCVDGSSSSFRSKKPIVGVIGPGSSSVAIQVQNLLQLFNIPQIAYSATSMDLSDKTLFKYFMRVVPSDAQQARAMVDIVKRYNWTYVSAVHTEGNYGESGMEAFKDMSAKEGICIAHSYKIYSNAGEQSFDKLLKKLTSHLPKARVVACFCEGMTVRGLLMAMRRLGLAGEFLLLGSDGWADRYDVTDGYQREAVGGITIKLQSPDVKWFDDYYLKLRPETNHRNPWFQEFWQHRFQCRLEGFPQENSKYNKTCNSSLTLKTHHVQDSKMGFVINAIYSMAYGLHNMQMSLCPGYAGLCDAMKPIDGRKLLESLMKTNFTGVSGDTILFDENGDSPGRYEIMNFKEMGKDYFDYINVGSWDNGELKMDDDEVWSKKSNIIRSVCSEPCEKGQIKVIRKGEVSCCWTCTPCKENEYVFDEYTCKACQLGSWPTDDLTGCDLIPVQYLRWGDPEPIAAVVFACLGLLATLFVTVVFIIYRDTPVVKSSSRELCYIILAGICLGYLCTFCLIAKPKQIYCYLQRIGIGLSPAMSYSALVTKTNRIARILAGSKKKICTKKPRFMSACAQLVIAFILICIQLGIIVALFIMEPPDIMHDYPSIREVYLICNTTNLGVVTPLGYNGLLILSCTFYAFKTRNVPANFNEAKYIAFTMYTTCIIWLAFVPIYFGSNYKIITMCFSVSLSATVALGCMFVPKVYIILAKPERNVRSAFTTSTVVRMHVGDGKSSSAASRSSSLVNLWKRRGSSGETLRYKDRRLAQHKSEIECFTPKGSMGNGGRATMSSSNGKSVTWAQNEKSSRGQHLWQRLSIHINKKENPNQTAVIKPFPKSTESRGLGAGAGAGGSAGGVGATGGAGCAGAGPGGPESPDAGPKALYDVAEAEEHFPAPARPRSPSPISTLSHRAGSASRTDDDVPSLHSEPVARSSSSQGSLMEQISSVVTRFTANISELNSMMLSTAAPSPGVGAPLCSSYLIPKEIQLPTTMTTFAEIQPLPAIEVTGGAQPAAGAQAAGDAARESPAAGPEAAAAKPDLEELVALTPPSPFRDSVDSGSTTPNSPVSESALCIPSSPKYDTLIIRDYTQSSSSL
# Outline: as §1
# [6] = test system: C57BL/6NTac mice; details: three weeks treatment, cited from earlier work
# Sequence of mGluR5 (allosteric site, [3H]MPEP) (P41594 21-1212): as above
SMILES,Ki [1] [nM],Emax [3] [%],activity in the Vogel Conflict Test ([4]; 30 mpk (p.o.)),Emax [5] [%],activity in the Vogel Conflict Test ([4]; 10 mpk (p.o.)),other results
"O=C(N[C@@H]1CCC[C@@]2(CCN(c3cccc(Cl)c3)C2=O)C1)c1ccccn1 (single isomer, unassigned) [Example 5]",95,81 to 99,,,,in vivo anxiolytic effect in mouse marble burying [2]: statistically significant in vivo anxiolytic effect
"O=C(N[C@@H]1CCC[C@@]2(CCN(c3cccc(F)c3)C2=O)C1)c1ccccn1 [Example 25, Pyridine-2-carboxylic acid [(5R,7R)-2-(3-fluoro-phenyl)-1-oxo-2-aza-spiro [4.5]dec-7-yl]-amide]",130,81 to 99,significant activity,,,
"Cc1nccc(C(=O)N[C@@H]2CCC[C@@]3(CCN(c4cc(F)cc(F)c4)C3=O)C2)n1 [Example 82, 2-Methyl-pyrimidine-4-carboxylic acid [(5R,7R)-2-(3,5-difluoro-phenyl)-1-oxo-2-aza-spiro[4.5]dec-7-yl]-amide]",,,,73 to 95,significant activity,
"Cc1nccc(N2CC[C@@]3(CCC[C@@H](NC(=O)c4cccc(F)c4)C3)C2=O)n1 [Example 147, 3-Fluoro-N-[(5R,7R)-2-(2-methyl-pyrimidin-4-yl)-1-oxo-2-aza-spiro[4.5]dec-7-yl]-benzamide]",,,significant activity,47 to 93,significant activity,activity in the Vogel Conflict Test ([4]; 3 mpk (p.o.)): significant activity
CNCCC(Oc1ccc(C(F)(F)F)cc1)c1ccccc1 (centres unmarked) [fluoxetine],,,,,,"effect on anxiety- and depression-like effects of seven weeks corticosterone in the OF, NSF and FST ([6]; 18 mg/kg/day ip): reversed the anxiety- and depression-like effects"
CN(C)CCCN1c2ccccc2CCc2ccccc21 [imipramine],,,,,,"effect on anxiety- and depression-like effects of seven weeks corticosterone in the OF, NSF and FST ([6]; 40 mg/kg/day ip): reversed the anxiety- and depression-like effects"
